In US20070043034A1, “Chlorine Ion Uptake Modulators and Uses Thereof” (priority 2005, published 2007):

Test system: 8.5 mM potassium-induced epileptiform activity in hippocampal slices
Test: 8.5 mM K+ induced epileptiform activity in hippocampal slices in vitro
Format: cell-based, rat
Conditions: for decrease of averaged power of epileptiform activity: bumetanide 10 μM
Source text: In this example, the effects of phenobarbital on recurrent interictal and ictal-like epileptiform activity in the hippocampal slices in vitro from P7-12 rats were studied. Interictal and ictal-like epileptiform activity are typical parameters studied when analyzing seizure activity in control and treated subjects. Phenobarbital exerts its pharmacological effects by allosteric activation of the GABAA receptor, increasing the duration of chloride ion channel opening, without affecting the frequency of opening or channel conductance. Simultaneous multi-site extracellular field potential records were performed in the CA3 pyramidal cell layer. To induce progressive neuronal firing, a bath application of 8.5 mM K+ was applied to the sections that developed to recurrent interictal and ictal-like epileptiform activities (FIG. 2A-2D). […] The power of extracellular field potential during 8.5 mM K+ (potassium) induced epileptiform activity in 0.1-1000 Hz frequency band, that include both gamma and fast ripple oscillations (FIG. 2A-2D).
In one exemplary method, experimental procedures were carried out on hippocampal slices of postnatal days 5 (P5) to P12 male Wistar rats. Animals were anaesthetized and decapitated and hippocampal slices were prepared by known methods. For example, hippocampal transverse slices were cut using Leica VT-100E vibratome (Leica Microsystems Nussloch GmbH, Germany) and kept in oxygenated aCSF at room temperature at least 1 hr before use. Hippocampal slices posterior to the midtemporal (caudal) part of the hippocampus (Paxinos and Watson, 1986) were used in the study.
In one example, electrophysiological recordings are gathered from individual slices and subsequently transferred to a conventional submerged-type chamber and continuously superfused with, for example, oxygenated aCSF. Whole-cell recordings were generated. Patch electrodes were used, made by known methods. For whole-cell recording in voltage-clamp mode pipettes were filled with a buffered solution.
From the example outlined above, extracellular field potentials were recorded and microelectrodes known in the art were used for simultaneous recordings of multiple unit activity (e.g. MUA; 500 Hz high-pass filter), population field activity in EEG band (1-100 Hz), and fast ripple oscillations (200-600 Hz).).
In one experimental example, bumetanide was tested for suppression of a 8.5 mM potassium-induced epileptiform activity in hippocampal slices from P7-9 and PI0-12 rats. […] Averaged power of epileptiform activity was decreased by 71±2.1% (n=9, p=1.57E-12) in P7-9 rat hippocampal slices and by 41.9±1.5% (n=6, p=2.13E-11) at P10-P12 (FIG. 3C).
In another aspect of this example, pharmaceutical compositions of the present invention may be tested for effects on the GABAA receptor using for example a GABAA-R antagonist before, during or after treatment with the pharmaceutical composition. In one example, GABAA receptor antagonists prevented the effect of bumetanide on power of epileptiform activity in the hippocampal slices from neonatal rats (FIGS. 3B and 3D). […] Here, an inhibition of synchronous network activity by bumetanide treatment in the perinatal hippocampal slices in this in vitro experiment was observed and these affects were partially reversed after treatment with bicuculline.

**Q.** Which results are given for `CCCCNc1cc(C(=O)O)cc(S(N)(=O)=O)c1Oc1ccccc1` [bumetanide, 3-(aminosulfonyl)-5-(butylamino)-4-phenoxybenzoic acid]?
**A.** decrease of averaged power of epileptiform activity (P7-9 rat hippocampal slices, n=9): 71±2.1%; decrease of averaged power of epileptiform activity (P10-P12 rat hippocampal slices, n=6): 41.9±1.5%; increase of IED frequency (bumetanide 10 μM in the presence of bicuculline 10 μM, P7-9 slices, n=6, p=0.008): 22.8 ± 6.4%; decrease of IED length (bumetanide 10 μM in the presence of bicuculline 10 μM, P7-9 slices, p=0.8): 2.2±8%; averaged power of epileptiform discharges (bumetanide 10 μM in the presence of bicuculline 10 μM, p=0.35): did not change; effect on epileptiform activity (hippocampal slices from P7-9 rats, bath application phenobarbital 100 μM (n=6) or bumetanide 10 μM (n=10)): strongly suppressed interictal and ictal-like epileptiform activity; effect on epileptiform activity (hippocampal slices from P10-12 rats, bath application phenobarbital 100 μM (n=7) or bumetanide 10 μM (n=6)): depressed ictal-like epileptiform activity
